# Laboratory results: US20240300927A1, “AMIDES AS CBL-B INHIBITORS” (Genentech, Inc., priority 2021, published 2024)
# Columns and labels:
# [1] = molecular target: Cbl-b (Homo sapiens (Human), UniProt Q13191); test: Cbl-b LCK Ub TR-FRET assay (Cbl-b Lck HTRF); type: biochemical; conditions: for (fold-selectivity): Cbl-b and C-Cbl selectivity, Lck HTRF; for IC50: read-out: Cbl-b Lck HTRF IC50
# Procedure: (§1) Compounds were 3-fold serially diluted in DMSO in a 384-well polypropylene plate (#P-05525-BC; Labcyte) to generate a source plate with 10 concentrations of each compound, top concentration=2 mM. 80 nL of DMSO or compounds were transferred to each well of a black 384-well ProxiPlate (#6008260; PerkinElmer) using a Labcyte Echo. 1× assay buffer (50 mM HEPES pH7.0, 100 mM NaCl, 0.01% BSA, 0.01% Triton-X100, 1 mM DTT), 2× enzyme solution (16 nM Biotin-Cbl-b or 12 nM Biotin-c-Cbl in 1× assay buffer), 2× kinase mixture (120 nM His-LCK, 1 mM ATP, 10 mM MgCl2 in assay buffer) and 2.33× detection mixture (4.66× solution 1: 163 nM Anti-HA-D2 antibody (#610HADAB; PerkinElmer), 27.96 nM Streptavidin-EU (#AD0062; PerkinElmer), 1.398 mM EDTA in 1× assay buffer+4.66× solution 2: 2.796 μM UBE2D2/Methylated-HA-Ubiquitin thioester adduct (BostonBiochem) in 1× assay buffer) were prepared. 4 μL of 2× enzyme solution was added to each well containing compound, briefly centrifuged to mix, and incubated for 60 min at room temperature. 4 μL of 2× kinase mixture was added, briefly centrifuged to mix, and incubated for 90 min. at room temperature. 6 μL of detection mixture was added to all wells and briefly centrifuged before incubating for 20 min at room temperature. Plates were read for TR-FRET using an Envision at excitation 340 nm, emission at 615 and 665 nm, 4 flashes per well. IC50 was generated using no LCK as the low control and DMSO as the high control.
# (§2) Cbl-b Lck HTRF data in Table 3 is measured according to Example 25 herein; C-cbl Lck HTRF data is measured according to Example 25 herein.
# (§3) SPR and the LCK biochemical assay are orthogonal assays: SPR is a protein binding assay while the LCK assay is an enzyme activity assay. SPR measures compound binding affinity to CBL-B/C-CBL, whereas LCK assay measures compound inhibition of CBL-B/C-CBL ubiquitin transfer activity.
# [2] = molecular target: c-Cbl (Homo sapiens (Human), UniProt P22681); test: C-cbl LCK Ub TR-FRET assay (C-cbl Lck HTRF); type: biochemical
# Procedure: as §1, §2, §3
# Cbl-b, sequence (Q13191 40-426): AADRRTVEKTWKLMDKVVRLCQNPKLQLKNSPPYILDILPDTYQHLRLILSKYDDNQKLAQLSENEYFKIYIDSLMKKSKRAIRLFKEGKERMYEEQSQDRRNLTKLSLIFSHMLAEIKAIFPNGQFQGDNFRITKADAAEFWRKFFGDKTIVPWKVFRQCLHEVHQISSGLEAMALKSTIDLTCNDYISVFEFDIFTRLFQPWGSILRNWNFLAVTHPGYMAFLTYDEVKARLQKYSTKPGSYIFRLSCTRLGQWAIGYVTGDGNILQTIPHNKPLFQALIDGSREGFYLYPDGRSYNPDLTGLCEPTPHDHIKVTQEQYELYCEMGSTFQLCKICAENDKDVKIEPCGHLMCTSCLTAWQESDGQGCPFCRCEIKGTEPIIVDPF
# c-Cbl, sequence (P22681 47-435): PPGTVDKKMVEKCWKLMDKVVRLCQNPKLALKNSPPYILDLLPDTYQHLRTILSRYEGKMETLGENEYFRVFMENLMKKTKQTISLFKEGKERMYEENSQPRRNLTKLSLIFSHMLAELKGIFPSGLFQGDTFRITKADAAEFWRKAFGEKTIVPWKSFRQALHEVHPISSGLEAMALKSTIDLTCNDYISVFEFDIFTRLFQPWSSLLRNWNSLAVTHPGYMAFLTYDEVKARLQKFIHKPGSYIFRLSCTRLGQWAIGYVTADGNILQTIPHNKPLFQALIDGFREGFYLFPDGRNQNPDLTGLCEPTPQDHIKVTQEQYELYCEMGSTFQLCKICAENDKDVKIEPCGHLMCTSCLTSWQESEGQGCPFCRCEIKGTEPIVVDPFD
(fold-selectivity) [1],IC50 [1],IC50 [2],SMILES
(1.9x),0.067 µM,0.13 µM,"C[C@H](c1cc(C(=O)Nc2cccc(C3(Cc4nncn4C)COC3)c2)nc(C(F)(F)F)c1)N1CCC2(CC2)C1 [Compound 4, (R)-4-(1-(5-azaspiro[2.4]heptan-5-yl)ethyl)-N-(3-(3-((4-methyl-4H-1,2,4-triazol-3-yl)methyl)oxetan-3-yl)phenyl)-6-(trifluoromethyl)picolinamide]"
(1.7x),0.02 µM,0.033 µM,"Cn1cnnc1[C@@H](F)C1(c2cccc(NC(=O)c3cc(CN4CCC5(CC5)C4)cc(C4CC4)n3)c2)COC1 [Compound 6, (S)-4-(5-azaspiro[2.4]heptan-5-ylmethyl)-6-cyclopropyl-N-(3-(3-(fluoro(4-methyl-4H-1,2,4-triazol-3-yl)methyl)oxetan-3-yl)phenyl)picolinamide]"
(1.1x),0.17 µM,0.18 µM,"Cn1cnnc1[C@@H](F)C1(c2cccc(NC(=O)c3cc(CN4CCC5(CC5)C4)nc(C4CC4)n3)c2)COC1 [Compound 63, (S)-6-((5-azaspiro[2.4]heptan-5-yl)methyl)-2-cyclopropyl-N-(3-(3-(fluoro(4-methyl-4H-1,2,4-triazol-3-yl)methyl)oxetan-3-yl)phenyl)pyrimidine-4-carboxamide]"
(1.4x),12 µM,16 µM,"Cn1cnnc1[C@@H](F)C(C)(F)c1cccc(NC(=O)c2cc(CN3CC(C)(F)C3)nc(C3CC3)n2)c1 (stereo in doubt) [Compound 45, 2-cyclopropyl-N-(3-((1R,2S)-1,2-difluoro-1-(4-methyl-4H-1,2,4-triazol-3-yl)propan-2-yl)phenyl)-6-((3-fluoro-3-methylazetidin-1-yl)methyl)pyrimidine-4-carboxamide]"
(2.3x),0.88 µM,2.1 µM,"Cn1cnnc1[C@H](F)[C@@](C)(F)c1cccc(NC(=O)c2cc(CN3CCC4(CC4)C3)nc(C3CC3)n2)c1 [Compound 40, 6-(5-azaspiro[2.4]heptan-5-ylmethyl)-2-cyclopropyl-N-(3-((1S,2S)-1,2-difluoro-1-(4-methyl-4H-1,2,4-triazol-3-yl)propan-2-yl)phenyl)pyrimidine-4-carboxamide]"
(1.5x),0.026 µM,0.039 µM,"Cn1cnnc1CC1(c2cccc(NC(=O)c3cc(C(CC4CC4)N4CCC5(CC5)C4)cc(C(F)(F)F)n3)c2)COC1 (stereo not drawn) [Compound 505, 4-(2-cyclopropyl-1-(5-azaspiro[2.4]heptan-5-yl)ethyl)-N-(3-(3-((4-methyl-4H-1,2,4-triazol-3-yl)methyl)oxetan-3-yl)phenyl)-6-(trifluoromethyl)picolinamide]"
(0.77x),2.3 µM,1.8 µM,"Cn1cnnc1CC1(c2cccc(NC(=O)c3nc(C(F)(F)F)c[nH]3)c2)COC1 [Compound 123, N-(3-(3-((4-methyl-4H-1,2,4-triazol-3-yl)methyl)oxetan-3-yl)phenyl)-4-(trifluoromethyl)-1H-imidazole-2-carboxamide]"
(0.82x),0.0099 µM,0.008 µM,"CC(C)[C@H]1CN(C)CCN1Cc1cc(C(=O)Nc2cccc(C3([C@H](F)c4nncn4C)COC3)c2)nc(C2CC2)c1 [Compound 500, 6-cyclopropyl-N-(3-(3-((S)-fluoro(4-methyl-4H-1,2,4-triazol-3-yl)methyl)oxetan-3-yl)phenyl)-4-(((S)-2-isopropyl-4-methylpiperazin-1-yl)methyl)picolinamide]"
(1.9x),0.025 µM,0.047 µM,"C[C@@H](c1cc(C(=O)Nc2cccc(C3(Cc4nncn4C)COC3)c2)nc(C(F)(F)F)c1)N1CCC2(CC2)C1 [Compound 3, (S)-4-(1-(5-azaspiro[2.4]heptan-5-yl)ethyl)-N-(3-(3-((4-methyl-4H-1,2,4-triazol-3-yl)methyl)oxetan-3-yl)phenyl)-6-(trifluoromethyl)picolinamide]"
(1.7x),0.025 µM,0.042 µM,"Cn1cnnc1[C@@H](F)[C@](C)(F)c1cccc(NC(=O)c2cc(CN3CCC4(CC4)C3)cc(C3CC3)n2)c1 [Compound 38, 4-(5-azaspiro[2.4]heptan-5-ylmethyl)-6-cyclopropyl-N-(3-((1R,2R)-1,2-difluoro-1-(4-methyl-4H-1,2,4-triazol-3-yl)propan-2-yl)phenyl)picolinamide]"
(1.1x),0.15 µM,0.16 µM,"Cn1cnnc1CC1(c2cccc(NC(=O)c3cc(CCO)cc(C(F)(F)F)n3)c2)COC1 [Compound 506, 4-(2-hydroxyethyl)-N-(3-(3-((4-methyl-4H-1,2,4-triazol-3-yl)methyl)oxetan-3-yl)phenyl)-6-(trifluoromethyl)picolinamide]"
(1.0x),20 µM,20 µM,"Cn1cnnc1[C@@H](F)[C@@]1(c2cccc(NC(=O)c3cccc(C(F)(F)F)n3)c2)CCO1 [Compound 502, N-(3-((S)-2-((R)-fluoro(4-methyl-4H-1,2,4-triazol-3-yl)methyl)oxetan-2-yl)phenyl)-6-(trifluoromethyl)picolinamide]"
(1.1x),0.26 µM,0.28 µM,"Cn1cnnc1C[C@]1(c2cccc(NC(=O)c3cccc(C(F)(F)F)n3)c2)C[C@H](F)C1 [Compound 18, N-(3-((1R,3S)-3-fluoro-1-((4-methyl-4H-1,2,4-triazol-3-yl)methyl)cyclobutyl)phenyl)-6-(trifluoromethyl)picolinamide]"
(0.89x),0.1 µM,0.089 µM,"Cn1cnnc1CC1(c2cccc(NC(=O)c3cc(CC(N)=O)cc(C(F)(F)F)n3)c2)COC1 [Compound 507, 4-(2-amino-2-oxoethyl)-N-(3-(3-((4-methyl-4H-1,2,4-triazol-3-yl)methyl)oxetan-3-yl)phenyl)-6-(trifluoromethyl)picolinamide]"
(1.8x),0.044 µM,0.078 µM,"Cn1cnnc1CC1(c2cccc(NC(=O)c3cc(CN4CCC5(CC5)C4)cc(C(F)(F)F)n3)c2)COC1 [Compound 98, 4-((5-azaspiro[2.4]heptan-5-yl)methyl)-N-(3-(3-((4-methyl-4H-1,2,4-triazol-3-yl)methyl)oxetan-3-yl)phenyl)-6-(trifluoromethyl)picolinamide]"
(1.9x),0.18 µM,0.34 µM,"Cn1cnnc1[C@H](F)[C@](C)(F)c1cccc(NC(=O)c2cc(CN3CCC4(CC4)C3)nc(C3CC3)n2)c1 [Compound 39, 6-(5-azaspiro[2.4]heptan-5-ylmethyl)-2-cyclopropyl-N-(3-((1S,2R)-1,2-difluoro-1-(4-methyl-4H-1,2,4-triazol-3-yl)propan-2-yl)phenyl)pyrimidine-4-carboxamide]"
(1.3x),0.27 µM,0.35 µM,"Cn1cnnc1[C@H](F)C1(c2cccc(NC(=O)c3cc(CN4CC(C)(F)C4)nc(C4CC4)n3)c2)COC1 [Compound 20, (R)-2-cyclopropyl-N-(3-(3-(fluoro(4-methyl-4H-1,2,4-triazol-3-yl)methyl)oxetan-3-yl)phenyl)-6-((3-fluoro-3-methylazetidin-1-yl)methyl)pyrimidine-4-carboxamide]"
(2.5x),4.8 µM,12 µM,"Cn1cnnc1[C@@H](F)[C@@](C)(F)c1cccc(NC(=O)c2cc(CN3CCC4(CC4)C3)nc(C3CC3)n2)c1 [Compound 41, 6-(5-azaspiro[2.4]heptan-5-ylmethyl)-2-cyclopropyl-N-(3-((1R,2S)-1,2-difluoro-1-(4-methyl-4H-1,2,4-triazol-3-yl)propan-2-yl)phenyl)pyrimidine-4-carboxamide]"
(1.0x),0.011 µM,0.011 µM,"CC(C)[C@H]1CN(C)CCN1Cc1cc(C(=O)Nc2cccc(C3([C@H](F)c4nncn4C)CC(F)(F)C3)c2)nc(C2CC2)c1 [Compound 223, 6-cyclopropyl-N-(3-(3,3-difluoro-1-((S)-fluoro(4-methyl-4H-1,2,4-triazol-3-yl)methyl)cyclobutyl)phenyl)-4-(((S)-2-isopropyl-4-methylpiperazin-1-yl)methyl)picolinamide]"
(2.2x),0.11 µM,0.25 µM,"C[C@@H](c1cc(C(=O)Nc2cccc(C3(Cc4nncn4C)COC3)c2)nc(C(F)(F)F)c1)N1CC(F)C1 [Compound 1, (S)-4-(1-(3-fluoroazetidin-1-yl)ethyl)-N-(3-(3-((4-methyl-4H-1,2,4-triazol-3-yl)methyl)oxetan-3-yl)phenyl)-6-(trifluoromethyl)picolinamide]"
